Experimental data reported in US8299296B2, “Spiro compounds and pharmaceutical use thereof” (Japan Tobacco Inc., priority 2007, dated 2012).
Where a name gives a salt, the structure may show the parent alone. Each block holds one molecule with its values, some of them ahead of it.

Target: T1, human GPR40 (Homo sapiens, UniProt O14842)
T1 construct: expressed in transfected cells
Experiment: Ca2+ mobilization (FLIPR) in a stable GPR40-expressing cell; GPR40 agonist activity
Format: cell-based
Details: compound concentration corresponding to 50% PosiC, 100% = intracellular calcium level induced by 80 μM palmitic acid
Protocol: Evaluation of effect of test compounds on Ca^2+ mobilization by using a stable GPR40-expressing cell A stable human GPR40-expressing HEK293 cell was used. A cell suspension was prepared such that the above-mentioned cells were present at 6×10^5 cells/mL in a cell culture medium (D-MEM (Nikken Bio Medical Laboratory) supplemented with 10% (v/v) fetal bovine serum (Biowest) and 1% (v/v) penicillin-streptomycin solution (Invitrogen)). The cell suspension was plated in a 384-well plate (poly-D-lysine coated plate; Falcon) in a volume of 25 μl/well, and the plate was incubated at 37° C. in an atmosphere of 5% CO2 overnight. Each test compound was added to the cell at each concentration as below, and then the change in intracellular calcium level was measured by FLIPR^TETRA (Molecular Devices). Before the FLIPR assay, the following preparative solutions were prepared. First, an assay buffer was prepared for use in the preparation of a fluorescent dye solution and a diluent buffer solution. The assay buffer was prepared by adding 1M HEPES solution (Invitrogen) to Hanks' Balanced Salt Solution (Invitrogen), followed by adjusting the pH to 7.4 with 1M NaOH (Nacalai Tesque). Next, the fluorescent dye solution and the diluent buffer solution were prepared. The fluorescent dye solution was prepared in accordance with the instruction manual attached to Fluo-4NW calcium assay kit (Invitrogen), followed by addition of bovine serum albumin (Sigma) to a final concentration of 0.1% (w/v). The diluent buffer solution was prepared by adding bovine serum albumin (Sigma) to the assay buffer to give a final concentration of 0.1% (w/v). After removing a medium supernatant from the cell culture plate incubated overnight, the fluorescent dye solution was added to the plate in a volume of 25 μl/well. The plate was incubated at 37° C. in an atmosphere of 5% CO2 for 90 minutes to promote the fluorescent dye uptake in the cell. Meanwhile, the test compounds (i.e., the compounds prepared in Examples) dissolved in dimethyl sulfoxide (DMSO; Nacalai Tesque) were diluted with the diluent buffer solution, to prepare each compound solution at each concentration. In addition, a palmitic acid solution was prepared as a positive control solution (hereinafter abbreviated as PosiC). A 40 μl aliquot of each sample solution prepared as above was added to each well of a 384-well polypropylene plate to prepare a compound plate. Finally, after the sufficient uptake of the fluorescent dye in the cell, the cell plate and the compound plate were set to FLIPR^TETRA. After the above pretreatment, the change in intracellular calcium level was measured by FLIPR^TETRA upon addition of 25 μl of each test compound solution at each concentration. The GPR40 agonist activity of each test compound at each concentration was determined as a relative activity level (% PosiC) with the intracellular calcium level induced by 80 μM palmitic acid (a GPR40 agonist) set to 100%. Next, each compound concentration corresponding to 50% PosiC was calculated based on the % PosiC value, to compare between agonist activities of the test compounds. In the tables, “++++” indicates 0.01 μM or more but less than 0.1 μM, “+++” indicates 0.1 μM or more but less than 1 μM, “++” indicates 1 μM or more but less than 10 μM, and “+” indicates 10 μM or more for 50% posiC value. In the tables, “N.T.” indicates “not tested”.

T1 sequence (O14842 whole entry): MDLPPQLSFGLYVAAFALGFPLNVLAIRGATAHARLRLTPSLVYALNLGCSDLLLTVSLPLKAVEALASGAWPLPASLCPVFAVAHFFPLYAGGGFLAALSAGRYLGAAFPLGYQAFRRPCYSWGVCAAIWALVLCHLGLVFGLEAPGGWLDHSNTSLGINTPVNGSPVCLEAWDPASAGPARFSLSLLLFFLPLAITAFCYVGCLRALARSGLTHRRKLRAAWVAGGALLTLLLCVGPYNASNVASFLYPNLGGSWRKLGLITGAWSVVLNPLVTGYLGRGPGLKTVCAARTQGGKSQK

SMILES: Cc1cc(OCC2=CC3(CCCC3)CCC2)ccc1CCC(=O)O [Example 109, 3-[2-methyl-4-(spiro[4.5]dec-6-en-7-ylmethoxy)-phenyl]-propionic acid]
EC50: 1000 to 10000 nM

SMILES: COC1CCC2(CCC(COc3ccc(CCC(=O)O)cc3)CC2)CC1 (racemic) [Example 114, 3-[4-(9-methoxy-spiro[5.5]undec-3-ylmethoxy)-phenyl]-propionic acid]
EC50: ≥ 10000 nM

SMILES: CC#C[C@H](CC(=O)O)c1ccc(OCC2=CC3(CCCC3)CCC2)cc1 [Example 94, (R)-3-[4-(spiro[4.5]dec-6-en-7-ylmethoxy)-phenyl]-hex-4-ynoic acid L-lysine salt]
EC50: 1000 to 10000 nM

SMILES: O=C1NC(=O)C(Cc2ccc(OCC3CCCC4(CCCCC4)C3)cc2)S1 (racemic) [Example 67, 5-[4-(spiro[5.5]undec-2-ylmethoxy)-benzyl]-thiazolidine-2,4-dione]
EC50: ≥ 10000 nM

SMILES: O=C(O)CCc1ccc(OCC2=CC3(CCCC3)CCC2)c(F)c1 [Example 112, 3-[3-fluoro-4-(spiro[4.5]dec-6-en-7-ylmethoxy)-phenyl]-propionic acid]
EC50: ≥ 10000 nM

SMILES: CC#C[C@@H](CC(=O)O)c1ccc(OCC2=CCC3(CCCCC3)CC2)cc1 [Example 73, (3S)-3-[4-(spiro[5.5]undec-2-en-3-ylmethoxy)-phenyl]-hex-4-ynoic acid]
EC50: 100 to 1000 nM

SMILES: CC#C[C@@H](CC(=O)O)c1ccc(OCC2CCCC3(CCCCC3)C2)cc1 (single isomer, unassigned) [Example 32]
EC50: 100 to 1000 nM

SMILES: CC#CC(CC(=O)O)c1ccc(OCC2CCCC3(CCCCC3)C2)cc1 (racemic) [Example 47, 3-[4-(spiro[5.5]undec-2-ylmethoxy)-phenyl]-hex-4-ynoic acid]
EC50: 100 to 1000 nM

SMILES: CC#C[C@@H](CC(=O)O)c1ccc(OCC2CCC3(CCCC3)CC2)cc1 [Example 22, (S)-3-[4-(spiro[4.5]dec-8-ylmethoxy)-phenyl]-hex-4-ynoic acid]
EC50: 100 to 1000 nM

Now from value to molecule:

EC50: 100 to 1000 nM
SMILES: CC#C[C@@H](CC(=O)O)c1ccc(OCC2CCC3(CCCCC3)C2)cc1 (stereo partly drawn) [Example 27, (3S)-3-[4-(spiro[4.5]dec-2-ylmethoxy)-phenyl]-hex-4-ynoic acid sodium salt]

EC50: 100 to 1000 nM
SMILES: O=C(O)CC(c1ccc(OCC2CCCC3(CCCCC3)C2)cc1)c1ncco1 (racemic) [Example 66, 3-oxazol-2-yl-3-[4-(spiro[5.5]undec-2-ylmethoxy)-phenyl]-propionic acid]

EC50: 100 to 1000 nM
SMILES: O=C(O)CCc1ccc(OCC2=CC3(CCCC3)CCC2)c(O)c1 [Example 110, 3-[3-hydroxy-4-(spiro[4.5]dec-6-en-7-ylmethoxy)-phenyl]-propionic acid]

EC50: 100 to 1000 nM
SMILES: CC(C)OC(CC(=O)O)c1ccc(OCC2CCCC3(CCCCC3)C2)cc1 (racemic) [Example 81, 3-isopropoxy-3-[4-(spiro[5.5]undec-2-ylmethoxy)-phenyl]-propionic acid]

EC50: 100 to 1000 nM
SMILES: CC#C[C@@H](CC(=O)O)c1ccc(OCC2=CC3(CCCC3)CCC2)cc1 [Example 8, (S)-3-[4-(spiro[4.5]dec-6-en-7-ylmethoxy)-phenyl]-hex-4-ynoic acid sodium salt]

EC50: 100 to 1000 nM
SMILES: CC#C[C@@H](CC(=O)O)c1ccc(OCC2=CCCC3(CCCC3)C2)cc1 [Example 6, (S)-3-[4-(spiro[4.5]dec-7-en-7-ylmethoxy)-phenyl]-hex-4-ynoic acid sodium salt]

EC50: 100 to 1000 nM
SMILES: CN(C)C(=O)C(CC(=O)O)c1ccc(OCC2CCCC3(CCCCC3)C2)cc1 (racemic) [Example 59, N,N-dimethyl-3-[4-(spiro[5.5]undec-2-ylmethoxy)-phenyl]-succinamic acid]

EC50: 10 to 100 nM
SMILES: CCOC(CC(=O)O)c1ccc(OCC2=CC3(CCCCC3)CCC2)cc1 (racemic) [Example 41, 3-ethoxy-3-[4-(spiro[5.5]undec-1-en-2-ylmethoxy)-phenyl]-propionic acid]

EC50: 100 to 1000 nM
SMILES: CC#C[C@@H](CC(=O)O)c1ccc(OCC2=CCC3(CCCC3)C2)cc1 [Example 11, (S)-3-[4-(spiro[4.4]non-2-en-2-ylmethoxy)-phenyl]-hex-4-ynoic acid]
